Results on 34 compounds are retold here after patent publication US20250092066A1, “SUBSTITUTED BICYCLIC HETEROCYCLES AS MALT-1 INHIBITORS” (AURIGENE ONCOLOGY LIMITED, priority 2022, published 2025).

The assay has as its target MALT-1 (Isoform1) (Homo sapiens (Human), UniProt Q9UDY8). Kind of assay: Biochemical fluorescent assay of MALT-1 (Isoform1) enzyme inhibition. The conditions noted are these: recombinant MALT-1 (Isoform1); for inhibition at 1 µM / Percent Inhibition (@ 1 μM): compound at 1 μM; for inhibition at 1 µM: read-out: Percent Inhibition (@ 1 μM); for IC50: 50 μM AC-LRSR-MAC substrate, 240 min. As for the experimental part:
The potency of compounds to inhibit MALT-1 (Isoform1) enzyme was tested in a Fluorescent assay using recombinant MALT-1 (Isoform1, aa-840) generated in-house. The assay buffer was 50 mM HEPES (pH 7.5), 100 mM NaCl, 10 mM DTT, 1 mM EDTA, 0.9 M sodium citrate, 0.01% CHAPS. 1.5 nM of MALT-1 enzyme was incubated with various concentrations of test compounds ([…]) (1% DMSO) in the presence of buffer for 30 minutes at 30° C. The protease reaction was initiated by adding 50 μM of AC-LRSR-MAC (Peptide International, USA) substrate and incubated for 240 min. After 240 min incubation, fluorescence emission of the samples at 460 nm was measured at an excitation of 355 nm. The percent inhibition was calculated using the following formula: […]. IC50 values were determined by fitting the dose-response data to sigmoidal curve fitting equation using Graph pad prism software VS.

SMILES strings stand for the structures.

Sequence of MALT-1 (Isoform1) (Q9UDY8 whole entry, canonical isoform): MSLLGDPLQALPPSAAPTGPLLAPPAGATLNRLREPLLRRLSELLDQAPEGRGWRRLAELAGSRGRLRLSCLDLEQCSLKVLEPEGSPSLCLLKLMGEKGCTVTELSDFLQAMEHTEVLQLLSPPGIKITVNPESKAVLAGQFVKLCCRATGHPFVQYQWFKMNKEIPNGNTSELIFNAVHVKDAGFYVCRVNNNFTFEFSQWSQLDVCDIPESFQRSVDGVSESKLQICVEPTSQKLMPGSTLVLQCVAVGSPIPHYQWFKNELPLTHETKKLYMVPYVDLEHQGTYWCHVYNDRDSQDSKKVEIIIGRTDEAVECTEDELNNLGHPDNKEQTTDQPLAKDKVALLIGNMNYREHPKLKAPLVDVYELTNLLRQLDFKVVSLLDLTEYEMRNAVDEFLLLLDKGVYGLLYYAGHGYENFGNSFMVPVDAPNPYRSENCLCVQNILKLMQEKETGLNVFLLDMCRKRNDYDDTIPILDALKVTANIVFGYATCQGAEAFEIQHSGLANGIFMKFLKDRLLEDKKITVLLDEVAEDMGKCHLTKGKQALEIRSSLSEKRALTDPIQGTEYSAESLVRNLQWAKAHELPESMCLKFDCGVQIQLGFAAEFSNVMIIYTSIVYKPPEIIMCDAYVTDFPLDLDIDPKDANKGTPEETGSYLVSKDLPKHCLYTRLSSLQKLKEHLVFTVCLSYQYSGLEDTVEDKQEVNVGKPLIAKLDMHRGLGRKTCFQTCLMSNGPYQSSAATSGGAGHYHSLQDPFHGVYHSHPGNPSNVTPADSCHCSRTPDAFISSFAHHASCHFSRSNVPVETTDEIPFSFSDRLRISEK

As for `COC(c1c(NC(=O)Nc2cc(F)c3nc(C)nn3c2)cnc2cc(Cl)nn12)C(C)C` (racemic) [Example 31, 1-(2-chloro-7-(1-methoxy-2-methylpropyl)pyrazolo[1,5-a]pyrimidin-6-yl)-3-(8-fluoro-2-methyl-[1,2,4]triazolo[1,5-a]pyridin-6-yl)urea], the inhibition at 1 µM amounted to 100% and the IC50 is less than 0.05 µM.

With `COC(c1c(NC(=O)Nc2cc(F)c3nc(C)nn3c2)cnc2cc(Cl)nn12)C1CC1` (racemic) [Example 32, 1-(2-chloro-7-(cyclopropyl(methoxy)methyl)pyrazolo[1,5-a]pyrimidin-6-yl)-3-(8-fluoro-2-methyl-[1,2,4]triazolo[1,5-a]pyridin-6-yl)urea], the inhibition at 1 µM was 100% and the IC50 was less than 0.05 µM.

Turning to `CCC(OC)c1c(NC(=O)Nc2cc(F)c3nc(C)nn3c2)cnc2cc(Cl)nn12` (racemic) [Example 33, 1-(2-chloro-7-(1-methoxypropyl)pyrazolo[1,5-a]pyrimidin-6-yl)-3-(8-fluoro-2-methyl-[1,2,4]triazolo[1,5-a]pyridin-6-yl)urea], the inhibition at 1 µM turned out to be 98% and the IC50 is less than 0.05 µM.

On to `COC(C)c1c(NC(=O)Nc2cc(Cl)c3ncnn3c2)cnc(C)c1Br` (racemic) [Example 34, 1-(5-bromo-4-(1-methoxyethyl)-6-methylpyridin-3-yl)-3-(8-chloro-[1,2,4]triazolo[1,5-a]pyridin-6-yl)urea], for which the inhibition at 1 µM amounted to 71% and the IC50 is greater than 0.25 µM.

For the compound `COC(C)c1c(NC(=O)Nc2cc(Cl)c3nc(C)nn3c2)cnc(C)c1Br` (racemic) [Example 35, 1-(5-bromo-4-(1-methoxyethyl)-6-methylpyridin-3-yl)-3-(8-chloro-2-methyl-[1,2,4]triazolo[1,5-a]pyridin-6-yl)urea], the inhibition at 1 µM turned out to be 72% and the IC50 is greater than 0.25 µM.

On to `COC(c1c(NC(=O)Nc2cc(F)c3nc(C)nn3c2)cnc2cc(Cl)nn12)C(C)C` (single isomer, unassigned) [Example 31a, 1-(2-chloro-7-(1-methoxy-2-methylpropyl)pyrazolo[1,5-a]pyrimidin-6-yl)-3-(8-fluoro-2-methyl-[1,2,4]triazolo[1,5-a]pyridin-6-yl)urea], for which the inhibition at 1 µM amounted to 100% and the IC50 is less than 0.05 µM.

In the case of `COC(c1c(NC(=O)Nc2cc(F)c3nc(C)nn3c2)cnc2cc(Cl)nn12)C(C)C` (single isomer, unassigned) [Example 31b, 1-(2-chloro-7-(1-methoxy-2-methylpropyl)pyrazolo[1,5-a]pyrimidin-6-yl)-3-(8-fluoro-2-methyl-[1,2,4]triazolo[1,5-a]pyridin-6-yl)urea], the “Percent Inhibition (@ 1 μM)” value worked out at 99% and the concentration for half-maximal inhibition (IC50) is less than 0.05 µM.

Turning to `COC(c1c(NC(=O)Nc2cc(F)c3nc(C)nn3c2)cnc2cc(Cl)nn12)C1CC1` (single isomer, unassigned) [Example 32a, 1-(2-chloro-7-(cyclopropyl(methoxy)methyl)pyrazolo[1,5-a]pyrimidin-6-yl)-3-(8-fluoro-2-methyl-[1,2,4]triazolo[1,5-a]pyridin-6-yl)urea], the inhibition at 1 µM was determined as 96% and the IC50 is 0.051 to 0.25 µM.

For `COC(c1c(NC(=O)Nc2cc(F)c3nc(C)nn3c2)cnc2cc(Cl)nn12)C1CC1` (single isomer, unassigned) [Example 32b, 1-(2-chloro-7-(cyclopropyl(methoxy)methyl)pyrazolo[1,5-a]pyrimidin-6-yl)-3-(8-fluoro-2-methyl-[1,2,4]triazolo[1,5-a]pyridin-6-yl)urea], the “Percent Inhibition (@ 1 μM)” value is listed as 99% and the IC50 was less than 0.05 µM.

Regarding `CCC(OC)c1c(NC(=O)Nc2cc(F)c3nc(C)nn3c2)cnc2cc(Cl)nn12` (single isomer, unassigned) [Example 33a, 1-(2-chloro-7-(1-methoxypropyl)pyrazolo[1,5-a]pyrimidin-6-yl)-3-(8-fluoro-2-methyl-[1,2,4]triazolo[1,5-a]pyridin-6-yl)urea], the inhibition at 1 µM was 99% and the half-inhibitory concentration (IC50) is less than 0.05 µM.

Consider `CCC(OC)c1c(NC(=O)Nc2cc(F)c3nc(C)nn3c2)cnc2cc(Cl)nn12` (single isomer, unassigned) [Example 33b, 1-(2-chloro-7-(1-methoxypropyl)pyrazolo[1,5-a]pyrimidin-6-yl)-3-(8-fluoro-2-methyl-[1,2,4]triazolo[1,5-a]pyridin-6-yl)urea], for which the “Percent Inhibition (@ 1 μM)” value stood at 96% and the IC50 fell in the range of 0.051 to 0.25 µM.

For the compound `COC(C)c1c(NC(=O)Nc2cc(Cl)c3ncnn3c2)cnc(C)c1Br` (single isomer, unassigned) [Example 34a, 1-(5-bromo-4-(1-methoxyethyl)-6-methylpyridin-3-yl)-3-(8-chloro-[1,2,4]triazolo[1,5-a]pyridin-6-yl)urea], the inhibition at 1 µM was determined as 79% and the IC50 lay within 0.051 to 0.25 µM.

Take `COC(C)c1c(NC(=O)Nc2cc(Cl)c3nc(C)nn3c2)cnc(C)c1Br` (single isomer, unassigned) [Example 35a, 1-(5-bromo-4-(1-methoxyethyl)-6-methylpyridin-3-yl)-3-(8-chloro-2-methyl-[1,2,4]triazolo[1,5-a]pyridin-6-yl)urea]: the “Percent Inhibition (@ 1 μM)” value amounted to 88% and the IC50 was 0.051 to 0.25 µM.

As for `COC(C)c1c(NC(=O)Nc2cc(Cl)c3nc(C)nn3c2)cnc(C)c1Br` (single isomer, unassigned) [Example 35b, 1-(5-bromo-4-(1-methoxyethyl)-6-methylpyridin-3-yl)-3-(8-chloro-2-methyl-[1,2,4]triazolo[1,5-a]pyridin-6-yl)urea], the “Percent Inhibition (@ 1 μM)” value is reported as 8% and the 50% inhibitory concentration (IC50) was greater than 0.25 µM.

Take `CO[C@@H](C)c1c(NC(=O)Nc2cc(Cl)c3ncnn3c2)cnc2cc(Cl)nn12` [Example 2]: the inhibition at 1 µM turned out to be 97% and the IC50 is less than 0.05 µM.

As for `CO[C@@H](C)c1c(NC(=O)Nc2cc(Br)c3ncnn3c2)cnc2cc(Cl)nn12` [Example 3], the inhibition at 1 µM came to 96% and the IC50 was less than 0.05 µM.

For the compound `CO[C@@H](C)c1c(NC(=O)Nc2cc(C(F)(F)F)c3ncnn3c2)cnc2cc(Cl)nn12` [Example 4], the inhibition at 1 µM came to 94% and the IC50 was 0.051 to 0.25 µM.

`CO[C@@H](C)c1c(NC(=O)Nc2cc(Cl)c3nc(C)nn3c2)cnc2cc(Cl)nn12` [Example 5]: the inhibition at 1 µM stood at 98% and the half-inhibitory concentration (IC50) is less than 0.05 µM.

As for `CO[C@@H](C)c1c(NC(=O)Nc2cc(Cl)c3nc(C4CC4)nn3c2)cnc2cc(Cl)nn12` [Example 6], the inhibition at 1 µM worked out at 97% and the concentration for half-maximal inhibition (IC50) was less than 0.05 µM.

For the compound `CO[C@@H](C)c1c(NC(=O)Nc2cc(Cl)c3nc(C(C)C)nn3c2)cnc2cc(Cl)nn12` [Example 7], the inhibition at 1 µM amounted to 96% and the IC50 is less than 0.05 µM.

In the case of `CO[C@@H](C)c1c(NC(=O)Nc2cc(Cl)c3nc(C(F)(F)F)nn3c2)cnc2cc(Cl)nn12` [Example 8], the inhibition at 1 µM came to 94% and the IC50 was less than 0.05 µM.

Turning to `CO[C@@H](C)c1c(NC(=O)Nc2cc(F)c3nc(C)nn3c2)cnc2cc(Cl)nn12` [Example 9], the inhibition at 1 µM turned out to be 92% and the IC50 was less than 0.05 µM.

Regarding `COc1cc(NC(=O)Nc2cnc3cc(Cl)nn3c2[C@H](C)OC)cn2nc(C)nc12` [Example 10], the inhibition at 1 µM is 38% and the IC50 was greater than 0.25 µM.

In the case of `CO[C@@H](C)c1c(NC(=O)Nc2cc(C(F)(F)F)c3nc(C)nn3c2)cnc2cc(Cl)nn12` [Example 11], the inhibition at 1 µM turned out to be 98% and the IC50 was less than 0.05 µM.

In the case of `Cc1nc2c(F)cc(NC(=O)Nc3cnc4cc(Cl)nn4c3C3CCCO3)cn2n1` (centres unmarked) [Example 12], the inhibition at 1 µM was 81% and the IC50 lay in the range of 0.051 to 0.25 µM.

On to `CO[C@@H](C)c1c(NC(=O)Nc2cc(F)c3nc(CO)nn3c2)cnc2cc(Cl)nn12` [Example 13], for which the inhibition at 1 µM is 84% and the IC50 was in the range of 0.051 to 0.25 µM.

As for `CO[C@@H](C)c1c(NC(=O)Nc2cc(C#N)c3nc(C)nn3c2)cnc2cc(Cl)nn12` [Example 14], the inhibition at 1 µM amounted to 99% and the IC50 is less than 0.05 µM.

With `Cc1nc2c(F)cc(NC(=O)Nc3cnc4cc(Cl)nn4c3C3CC3)cn2n1` [Example 15], the inhibition at 1 µM stood at 79% and the IC50 is 0.051 to 0.25 µM.

With `Cc1nc2c(F)cc(NC(=O)Nc3cnc4cc(Cl)nn4c3C(C)C)cn2n1` [Example 16], the inhibition at 1 µM stood at 90% and the half-inhibitory concentration (IC50) is less than 0.05 µM.

Regarding `COCc1nc2c(F)cc(NC(=O)Nc3cnc4cc(Cl)nn4c3[C@H](C)OC)cn2n1` [Example 17], the inhibition at 1 µM amounted to 82% and the half-maximal inhibitory concentration (IC50) is less than 0.05 µM.

With `CO[C@@H](C)c1c(NC(=O)Nc2cc(C#N)c3ncnn3c2)cnc2cc(Cl)nn12` [Example 18], the inhibition at 1 µM turned out to be 98% and the IC50 was less than 0.05 µM.

Turning to `CO[C@@H](C)c1c(NC(=O)Nc2cn3nc(C)nc3c(Br)c2C)cnc2cc(Cl)nn12` [Example 19], the inhibition at 1 µM came to 17% and the IC50 was greater than 0.25 µM.

Consider `CO[C@@H](C)c1c(NC(=O)Nc2ccc3nncn3c2)cnc2cc(Cl)nn12` [Example 20], for which the inhibition at 1 µM is 16% and the IC50 was greater than 0.25 µM.

For the compound `CO[C@@H](C)[C@@H](OC)c1c(NC(=O)Nc2cc(F)c3nc(C)nn3c2)cnc2cc(Cl)nn12` [Example 21], the inhibition at 1 µM is 96% and the IC50 was greater than 0.25 µM.
